# Measured values taken from patent US11767316B2, “Non-fused thiophene derivatives and their uses” (ENYO PHARMA, priority 2018, dated 2023).
# System: H1N1 (influenza A/New Caledonia/20/99)
# Test: Antiviral effect on A549 cells infected with H1N1 (MUNANA neuraminidase readout)
# Type: cell-based
# Settings: H1N1 A/New Caledonia/20/99 at MOI 0.1, 48 h post-infection, MUNANA fluorescence, read-out: IC50
# Procedure: The antiviral effect of the compounds of the invention have been tested on A549 cell lines infected with H1N1 (influenza A/New Caledonia/20/99).
# Human A549 cells (80,000 cells/well in a 96 well plate) were treated with a range of concentration of test compounds and immediately infected by H1N1 A/New Caledonia/20/99 virus (clinical isolate) at MOI of 0.1 in DMEM/1% Penicillin/streptomycin supplemented with 0.25 μg/ml TPCK trypsin (Sigma) and incubated at 37° C. in 5% CO2. 48 h post-infection, supernatants (25 μl) were collected and transferred into a 96-well black flat-bottom plate, mixed with 25 μl PBS with Ca++/Mg++(Thermo Fisher) and 50 μl of 2′-(4-Methylumbelliferyl)-α-D-N-acetylneuraminic acid sodium salt hydrate stock-solution (20 μM, MUNANA, Sigma). Plates were incubated 1 h at 37° C. and reaction is stopped by adding 100 μl of Stop Solution (glycine 0.1 M pH10.7/25% ethanol). The amount of fluorescent product released by MUNANA hydrolysis (4-MU) was measured in a Tecan spectrophotometer with excitation and emission wavelengths of 365 and 450 nm respectively.
row,Structure (SMILES),IC50
1,O=C(Nc1scc(C2CCc3ccccc3C2)c1C(=O)O)c1ccccc1 (stereo not drawn) [#156],185 nM
2,O=C(Nc1scc(C2CCc3ccccc3C2)c1C(=O)O)c1ccccc1 (stereo not drawn) [#157],7 nM
3,O=C(Nc1scc(C2CCc3ccccc3C2)c1C(=O)O)c1ccc(F)cc1 (stereo not drawn) [#171],6 nM
4,O=C(Nc1scc(C2CCc3ccccc3C2)c1C(=O)O)c1ccc(F)cc1 (stereo not drawn) [#172],617 nM
5,O=C(Nc1scc(C2CCc3ccccc3C2)c1C(=O)O)c1ccc(OC(F)F)cc1 (stereo not drawn) [#174],0.3 nM
6,O=C(Nc1scc(C2CCc3ccccc3C2)c1C(=O)O)c1ccc(OC(F)F)cc1 (stereo not drawn) [#175],14 nM

# Same assay, conditions: Influenza A virus, H1N1, A549, 48 h, H1N1 A/New Caledonia/20/99 at MOI 0.1, 48 h post-infection, MUNANA fluorescence
row,Structure (SMILES),IC50
1,O=C(Nc1scc(C2CCc3ccccc3C2)c1C(=O)O)c1ccc(OC2CCOCC2)cc1 (stereo not drawn) [#182],3 nM
2,O=C(Nc1scc(C2CCc3ccccc3C2)c1C(=O)O)c1ccc(N2CCCS2(=O)=O)cc1 (stereo not drawn) [#184],32 nM

# Same assay, conditions: Influenza A virus, H1N1, A549, 48 h, H1N1 A/New Caledonia/20/99 at MOI 0.1, 48 h post-infection, MUNANA fluorescence, read-out: IC50
row,Structure (SMILES),IC50
1,O=C(Nc1scc(-c2ccc3c(c2)CCC3)c1C(=O)O)c1ccccc1 [#3],280 nM
2,O=C(Nc1scc(C2Cc3ccccc3C2)c1C(=O)O)c1ccccc1 [#7],144 nM
3,O=C(Nc1sc(Cl)c(C2Cc3ccccc3C2)c1C(=O)O)c1ccccc1 [#8],187 nM
4,O=C(Nc1sc(Cl)c(C2CCc3ccccc32)c1C(=O)O)c1ccccc1 (stereo not drawn) [#49],130 nM
5,O=C(Nc1sc(C2CC2)c(C2Cc3ccccc3C2)c1C(=O)O)c1ccccc1 [#51],52 nM
6,O=C(Nc1scc(C2CCc3ccccc3C2)c1C(=O)O)c1ccc(NC2CCOCC2)cc1 (stereo not drawn) [#52],0.4 nM
7,COC1CN(c2ccc(C(=O)Nc3scc(C4CCc5ccccc5C4)c3C(=O)O)cc2)C1 (stereo not drawn) [#53],4 nM
8,O=C(Nc1scc(C2CCc3ccccc32)c1C(=O)O)c1ccc(NC2CCOCC2)cc1 (stereo not drawn) [#55],33.8 nM
9,O=C(Nc1scc(C2CCc3ccccc32)c1C(=O)O)c1ccc(N2CCOCC2)cc1 (stereo not drawn) [#56],110 nM
10,COC1CN(c2ccc(C(=O)Nc3scc(C4CCc5ccccc54)c3C(=O)O)cc2)C1 (stereo not drawn) [#58],100 nM
11,COCCCNc1ccc(C(=O)Nc2scc(C3CCc4ccccc4C3)c2C(=O)O)cc1 (stereo not drawn) [#64],3.3 nM
12,COCCNc1ccc(C(=O)Nc2scc(C3CCc4ccccc4C3)c2C(=O)O)cc1 (stereo not drawn) [#65],4 nM
13,O=C(Nc1scc(C2CCc3ccccc3C2)c1C(=O)O)c1ccc(NC2CCCOC2)cc1 (stereo not drawn) [#67],2 nM
14,O=C(Nc1scc(C2CCc3ccccc3C2)c1C(=O)O)c1ccc(N2CCOCC2)cc1 (stereo not drawn) [#68],52 nM
15,O=C(Nc1scc(C2CCc3ccccc3C2)c1C(=O)O)c1ccc(NCC2CCOCC2)cc1 (stereo not drawn) [#69],3 nM
16,O=C(Nc1scc(C2CCc3ccccc3C2)c1C(=O)O)c1cccc(N2CCOCC2)c1 (stereo not drawn) [#70],7.5 nM
17,O=C(Nc1scc(C2CCc3ccccc3C2)c1C(=O)O)c1cnc(N2CCOCC2)nc1 (stereo not drawn) [#89],240 nM
18,COC1CN(c2cccc(C(=O)Nc3scc(C4CCc5ccccc5C4)c3C(=O)O)c2)C1 (stereo not drawn) [#93],8 nM
19,COCCOc1ccc(C(=O)Nc2scc(C3CCc4ccccc4C3)c2C(=O)O)cc1 (stereo not drawn) [#101],44.6 nM
20,O=C(Nc1scc(C2CCc3ccccc3CC2)c1C(=O)O)c1ccccc1 [#122],744 nM
21,O=C(Nc1scc(-c2ccc3c(c2)CCCC3)c1C(=O)O)c1ccccc1 [#123],133 nM
22,O=C(Nc1scc(-c2ccc3c(c2)CCCC3)c1C(=O)O)c1ccc(F)cc1 [#125],237 nM
23,O=C(Nc1scc(C2CCCc3ccccc32)c1C(=O)O)c1ccc(F)cc1 (stereo not drawn) [#126],237 nM
24,COc1cc(C(=O)Nc2scc(C3CCc4ccccc4C3)c2C(=O)O)ccc1NCC1CCOCC1 (stereo not drawn) [#127],1.8 nM
25,O=C(Nc1scc(C2CCc3ccccc3C2)c1C(=O)O)c1ccc(NCC2CCCCC2)cc1 (stereo not drawn) [#128],0.8 nM

row,Structure (SMILES),IC50
1,O=C(Nc1scc(C2CCc3ccccc3C2)c1C(=O)O)c1ccccc1N1CCOCC1 (stereo not drawn) [#129],460 nM
2,O=C(Nc1scc(C2CCc3ccccc3C2)c1C(=O)O)c1ccccc1CN1CCOCC1 (stereo not drawn) [#130],560 nM
3,O=C(Nc1scc(C2CCc3ccccc3C2)c1C(=O)O)c1ccc(NC(CO)C2CCOCC2)cc1 (stereo not drawn) [#131],110 nM
4,CN(CC1CCOCC1)c1ccc(C(=O)Nc2scc(C3CCc4ccccc4C3)c2C(=O)O)cc1 (stereo not drawn) [#132],2 nM
5,O=C(Nc1scc(C2CCc3ccccc3C2)c1C(=O)O)c1ccc(NCCCCO)cc1 (stereo not drawn) [#133],50 nM
6,O=C(Nc1scc(C2CCc3ccccc3C2)c1C(=O)O)c1ccc(NCC2CCOCC2)c(O)c1 (stereo not drawn) [#134],24 nM
7,COCCCCNc1ccc(C(=O)Nc2scc(C3CCc4ccccc4C3)c2C(=O)O)cc1 (stereo not drawn) [#135],3 nM
8,O=C(Nc1scc(C2CCc3ccccc3C2)c1C(=O)O)c1ccc(NCC2(O)CCOCC2)cc1 (stereo not drawn) [#136],30 nM
9,COc1cc(C(=O)Nc2scc(C3CCc4ccccc4C3)c2C(=O)O)cc(OC)c1NCC1CCOCC1 (stereo not drawn) [#137],4.2 nM
10,O=C(Nc1scc(C2CCc3ccccc3C2)c1C(=O)O)c1ccc(NCC2CCS(=O)(=O)CC2)cc1 (stereo not drawn) [#138],22 nM
11,O=C(Nc1scc(C2CCc3ccccc3C2)c1C(=O)O)c1ccc(N2CC3CC(C2)O3)cc1 (stereo not drawn) [#139],15 nM
12,O=C(Nc1scc(C2CCc3ccccc3C2)c1C(=O)O)c1ccc(N2C[C@H]3C[C@@H]2CO3)cc1 (stereo partly drawn) [#141],2.7 nM
13,O=C(Nc1scc(C2CCc3ccccc3C2)c1C(=O)O)c1ccc(N2CC3CCC(C2)O3)cc1 (stereo not drawn) [#142],0.3 nM
14,C[C@H]1CN(c2ccc(C(=O)Nc3scc(C4CCc5ccccc5C4)c3C(=O)O)cc2)CCO1 (stereo partly drawn) [#143],4 nM
15,O=C(Nc1scc(C2CCc3ccccc3C2)c1C(=O)O)c1ccc(N2C3CCC2COC3)cc1 (stereo not drawn) [#144],4 nM
16,C[C@@H]1COCCN1c1ccc(C(=O)Nc2scc(C3CCc4ccccc4C3)c2C(=O)O)cc1 (stereo partly drawn) [#145],32 nM
17,C[C@H]1COCCN1c1ccc(C(=O)Nc2scc(C3CCc4ccccc4C3)c2C(=O)O)cc1 (stereo partly drawn) [#146],0.5 nM
18,C[C@@H]1CN(c2ccc(C(=O)Nc3scc(C4CCc5ccccc5C4)c3C(=O)O)cc2)CCO1 (stereo partly drawn) [#147],8 nM
19,C[C@@H]1CN(c2ccc(C(=O)Nc3scc(C4CCc5ccccc5C4)c3C(=O)O)cc2)C[C@H](C)O1 (stereo partly drawn) [#148],24 nM
20,C[C@@H]1COC[C@H](C)N1c1ccc(C(=O)Nc2scc(C3CCc4ccccc4C3)c2C(=O)O)cc1 (stereo partly drawn) [#149],29 nM
21,O=C(Nc1scc(C2CCc3ccccc3C2)c1C(=O)O)c1ccc(N2C3COCC2C3)cc1 (stereo not drawn) [#150],1 nM
22,O=C(Nc1scc(C2CCc3ccccc3C2)c1C(=O)O)c1ccc(OC(F)(F)F)cc1 (stereo not drawn) [#153],0.4 nM
23,COc1ccc(C(=O)Nc2scc(C3CCc4ccccc4C3)c2C(=O)O)cc1 (stereo not drawn) [#154],2.7 nM
24,COc1ccc(C(=O)Nc2scc(C3CCc4ccccc4C3)c2C(=O)O)cc1OC (stereo not drawn) [#155],3 nM
25,O=C(Nc1scc(C2CCc3ccccc3C2)c1C(=O)O)c1ccc(C(F)(F)F)cc1 (stereo not drawn) [#158],7 nM

row,Structure (SMILES),IC50
1,COc1ccccc1C(=O)Nc1scc(C2CCc3ccccc3C2)c1C(=O)O (stereo not drawn) [#159],100 nM
2,O=C(Nc1scc(C2CCc3ccccc3C2)c1C(=O)O)c1ccccc1O (stereo not drawn) [#160],147 nM
3,O=C(Nc1scc(C2CCc3ccccc3C2)c1C(=O)O)c1ccc(Cl)cc1 (stereo not drawn) [#161],16 nM
4,O=C(Nc1scc(C2CCc3ccccc3C2)c1C(=O)O)c1ccccc1F (stereo not drawn) [#163],43 nM
5,COc1cc(C(=O)Nc2scc(C3CCc4ccccc4C3)c2C(=O)O)ccc1F (stereo not drawn) [#164],8 nM
6,CS(=O)(=O)c1ccc(C(=O)Nc2scc(C3CCc4ccccc4C3)c2C(=O)O)cc1 (stereo not drawn) [#165],900 nM
7,Cc1ccc(C(=O)Nc2scc(C3CCc4ccccc4C3)c2C(=O)O)cc1 (stereo not drawn) [#166],39 nM
8,O=C(Nc1scc(C2CCc3ccccc3C2)c1C(=O)O)c1cccc(Cl)c1 (stereo not drawn) [#167],75 nM
9,O=C(Nc1scc(C2CCc3ccccc3C2)c1C(=O)O)c1ccc(N2CCCC2=O)cc1 (stereo not drawn) [#168],11 nM
10,O=C(Nc1scc(C2CCc3ccccc3C2)c1C(=O)O)c1cccc(F)c1 (stereo not drawn) [#169],162 nM
11,O=C(Nc1scc(C2CCc3ccccc3C2)c1C(=O)O)c1cccc(OC(F)F)c1 (stereo not drawn) [#170],18 nM
12,O=C(Nc1scc(C2CCc3ccccc3C2)c1C(=O)O)c1ccc2c(c1)OCCO2 (stereo not drawn) [#176],76 nM
13,O=C(Nc1scc(C2CCc3ccccc3C2)c1C(=O)O)c1ccc2c(c1)CCO2 (stereo not drawn) [#177],35 nM
14,O=C(Nc1scc(C2CCc3ccccc3C2)c1C(=O)O)c1ccc(OC2CCC2)cc1 (stereo not drawn) [#178],122 nM
15,CC1(C)Cc2cc(C(=O)Nc3scc(C4CCc5ccccc5C4)c3C(=O)O)ccc2O1 (stereo not drawn) [#179],29 nM
16,O=C(Nc1scc(C2CCc3ccccc3C2)c1C(=O)O)c1ccc2c(c1)CCCO2 (stereo not drawn) [#181],2 nM
17,O=C(Nc1scc(C2=Cc3ccccc3CC2)c1C(=O)O)c1ccccc1 [#185],260 nM
18,O=C(Nc1scc(C2CCc3ccccc3C2)c1C(=O)O)c1ccccn1 (stereo not drawn) [#186],134 nM
19,COc1ccc(C(=O)Nc2scc(C3CCc4ccccc4C3)c2C(=O)O)nc1 (stereo not drawn) [#187],15 nM
20,CC(C)(C)Oc1ccc(C(=O)Nc2scc(C3CCc4ccccc4C3)c2C(=O)O)cc1 (stereo not drawn) [#188],15 nM
21,O=C(Nc1scc(C2CCc3ccc(F)cc3C2)c1C(=O)O)c1ccccc1 (stereo not drawn) [#189],178 nM
22,O=C(Nc1scc(C2CCc3c(F)cccc3C2)c1C(=O)O)c1ccccc1 (stereo not drawn) [#190],8 nM
23,O=C(Nc1scc(C2CCc3cc(F)ccc3C2)c1C(=O)O)c1ccccc1 (stereo not drawn) [#191],46 nM
